Measured values: patent US20230066011A1, “PYRROLOPYRIMIDINE DERIVATIVE, AND PHARMACEUTICAL COMPOSITION FOR PREVENTING OR TREATING PROTEIN KINASE-RELATED DISEASE COMPRISING SAME AS ACTIVE INGREDIENT” (VORONOI CO., LTD., priority 2019, published 2023)

Key:
MDA-MB-468 cell line = assay: Inhibition of proliferation of MDA-MB-468 cancer cells (Cell Titer-Glo); format: cell-based; conditions: Homo sapiens, MDA-MB-468, 72 hours
Outline: (§1)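 Step one, seed 2,000 cells per well in DMEM or RPMI. Step two, add compound at 11 final concentrations (10 to 0.000169 μM, 3-fold series) and culture for 72 hours. Step three, add Cell Titer-Glo, wait 10 min at room temperature, read luminescence and calculate GI50.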

human GST-CLK1 = biological target: T1, human GST-CLK1 (Homo sapiens, UniProt P49759); assay: GST-CLK1 enzyme inhibition, ADP-Glo kinase assay; format: biochemical; conditions: ATP 10 μM, GST-CLK1 129-end
T1 construct: purified human GST-CLK1 (129-end, SignalChem) enzyme; purchased SignalChem
Outline: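 Human GST-CLK1 (129-end, 3 ng) reacted with substrate and 10 μM ATP for 1 h at 25° C in 40 mM Tris-HCl pH 7.4, 20 mM MgCl2, 0.5 mg/mL BSA, 50 μM DTT. ADP-Glo luminescence was normalised to solvent control; IC50 (nM) from 3 data sets.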

MDA-MB-231 cell line = assay: Inhibition of proliferation of MDA-MB-231 cancer cells (Cell Titer-Glo); format: cell-based; conditions: Homo sapiens, 72 hours
Outline: as §1

TTK = biological target: T2, TTK (Homo sapiens, UniProt P33981); assay: TTK enzyme inhibition, ADP-Glo kinase assay; format: biochemical; parameters: purchased SignalChem T20-10G; conditions: ATP 5 μM
T2 sequence (P33981 1-857): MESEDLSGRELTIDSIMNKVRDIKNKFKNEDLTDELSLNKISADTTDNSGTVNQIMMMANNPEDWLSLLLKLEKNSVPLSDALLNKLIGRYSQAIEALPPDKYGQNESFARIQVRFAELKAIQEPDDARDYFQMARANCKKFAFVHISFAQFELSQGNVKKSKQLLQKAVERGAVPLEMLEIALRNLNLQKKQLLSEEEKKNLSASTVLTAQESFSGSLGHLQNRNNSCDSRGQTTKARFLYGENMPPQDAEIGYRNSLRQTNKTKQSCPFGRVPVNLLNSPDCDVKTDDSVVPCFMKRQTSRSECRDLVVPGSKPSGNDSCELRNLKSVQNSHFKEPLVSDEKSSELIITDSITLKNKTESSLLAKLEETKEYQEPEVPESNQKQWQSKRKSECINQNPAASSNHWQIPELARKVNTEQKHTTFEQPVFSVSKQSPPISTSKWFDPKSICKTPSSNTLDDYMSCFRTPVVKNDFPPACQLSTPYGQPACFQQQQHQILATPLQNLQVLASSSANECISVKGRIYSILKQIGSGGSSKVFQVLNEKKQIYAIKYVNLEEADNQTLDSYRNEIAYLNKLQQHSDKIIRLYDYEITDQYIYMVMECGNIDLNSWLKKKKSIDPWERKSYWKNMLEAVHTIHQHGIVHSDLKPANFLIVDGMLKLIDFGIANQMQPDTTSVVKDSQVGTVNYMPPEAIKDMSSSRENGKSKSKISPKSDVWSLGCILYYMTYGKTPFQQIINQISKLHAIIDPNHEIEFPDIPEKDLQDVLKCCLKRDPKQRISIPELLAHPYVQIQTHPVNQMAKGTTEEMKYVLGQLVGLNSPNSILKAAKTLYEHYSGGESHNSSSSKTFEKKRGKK
Method: To evaluate an inhibitory activity of the compound according to the present invention against LRRK2, LRRK2 (G2019S), DYRK1, CLK1, and TTK kinases, experiments were performed as follows.
Each of the Example compounds was reacted with a purified human TTK (SignalChem #T20-10G) enzyme to evaluate an ability to inhibit an enzyme using a method as described below. A composition of 40 mM Tris-HCl (pH 7.4), 20 mM MgCl2, 0.1 mg/mL BSA (a 5× kinase buffer, SignalChem #K03-09), and 50 μM DTT (SignalChem #D86-09B) was used as a reaction buffer, and all reactions of test substances were performed in the reaction buffer. Each of the compounds was diluted […] from a 10 mM DMSO stock using a serial dilution method, and enzyme activities were measured at final compound concentrations of 1, 0.333333, 0.111111, 0.037037, 0.012346, 0.004115, 0.001372, 0.000457, 0.000152, 0.000051, and 0.000017 μM. In the test, purified ATP (5 μM, Promega #V6930) and an MBP enzyme substrate (0.2 μg, SignalChem M42-51N) were reacted with a human TTK (7.5 ng) enzyme at 25° C. for 4 hours, and the enzyme activities were then determined using an in vitro ADP-Glo™ kinase assay (Promega #V6930). An enzyme-activity reaction solution, an ADP-Glo reaction solution, and an enzyme-ability detection solution were reacted at a ratio of 2:2:1 to measure a degree of inhibition of the enzyme activity with luminescence. The degree of inhibition of the enzyme activity according to the treatment concentration of each of the compounds was calculated based on the fluorescence of the enzyme activity of the solvent control which was not treated with the compound. In this case, the concentration of each of the compounds inhibiting 50% of the enzyme activity was determined to be an IC50 (nM) value, and calculated using Prism (Version 8.2 GraphPad) software.

human GST-DYRK1A = biological target: T3, human GST-DYRK1A (Homo sapiens, UniProt Q13627); assay: GST-DYRK1A enzyme inhibition, ADP-Glo kinase assay; format: biochemical; conditions: ATP 10 μM, GST-DYRK1A full length, read-out: DYRK1 IC50
T3 construct: purified human GST-DYRK1A (full length, Thermo Scientifics) enzyme; purchased Thermo Scientifics
Outline: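 Full-length human GST-DYRK1A (10 ng) with 10 μM ATP and specific substrate in 40 mM Tris-HCl pH 7.4, 20 mM MgCl2, 0.5 mg/mL BSA, 50 μM DTT, 1 h at 25 °C. ADP formation read by ADP-Glo luminescence relative to solvent control; IC50 from three data sets.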

T1 sequence (P49759 129-484 limits assumed): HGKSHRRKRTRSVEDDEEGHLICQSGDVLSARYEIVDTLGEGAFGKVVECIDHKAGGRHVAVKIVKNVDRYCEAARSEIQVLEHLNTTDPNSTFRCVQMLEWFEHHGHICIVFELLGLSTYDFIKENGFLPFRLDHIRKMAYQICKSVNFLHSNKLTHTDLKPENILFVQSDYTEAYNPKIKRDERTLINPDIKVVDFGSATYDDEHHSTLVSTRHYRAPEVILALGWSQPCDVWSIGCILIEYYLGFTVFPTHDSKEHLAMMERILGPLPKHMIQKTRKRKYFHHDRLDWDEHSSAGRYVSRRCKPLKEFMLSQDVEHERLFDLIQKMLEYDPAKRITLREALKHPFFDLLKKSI

Row | GI50 (MDA-MB-468 cell line) | IC50 (human GST-CLK1) | GI50 (MDA-MB-231 cell line) | IC50 (TTK) | IC50 (human GST-DYRK1A) | SMILES
1 | 51 to 100 nM | 101 to 300 nM | 101 to 300 nM | < 100 nM | 301 to 1000 nM | CCN1CCP(=O)(c2ccc(Nc3nc(NC4CCCCC4)c4c(C#N)c[nH]c4n3)c(OC)c2)CC1 [Example 151, 4-(cyclohexylamino)-2-((4-(1-ethyl-4-oxido-1,4-azaphosphinan-4-yl)-2-methoxyphenyl)amino)-7H-pyrrolo[2,3-d]pyrimidine-5-carbonitrile]
2 | 51 to 100 nM | 301 to 1000 nM | 51 to 100 nM | < 100 nM | 301 to 1000 nM | N#Cc1c[nH]c2nc(Nc3ccc(C(=O)N4CCN(C5CC5)CC4)c4c3OCCO4)nc(NC3CCCCC3)c12 [Example 145]
3 | 101 to 300 nM | 301 to 1000 nM | 101 to 300 nM | < 100 nM | 301 to 1000 nM | N#Cc1c[nH]c2nc(Nc3ccc(C(=O)N4CCN(C5CC5)CC4)c4c3OCCO4)nc(NC3CCCC3)c12 [Example 148, 4-(cyclopentylamino)-2-((8-(4-cyclopropylpiperazine-1-carbonyl)-2,3-dihydrobenzo[b][1,4]dioxin-5-yl)amino)-7H-pyrrolo[2,3-d]pyrimidine-5-carbonitrile]
4 | 51 to 100 nM | < 100 nM | 101 to 300 nM | < 100 nM | 301 to 1000 nM | N#Cc1c[nH]c2nc(Nc3ccc(C(=O)N4CCN(C5COC5)CC4)c4c3OCCO4)nc(NC3CCCC3)c12 [Example 147, 4-(cyclopentylamino)-2-((8-(4-(oxetan-3-yl)piperazine-1-carbonyl)-2,3-dihydrobenzo[b][1,4]dioxin-5-yl)amino)-7H-pyrrolo[2,3-d]pyrimidin-5-carbonitrile]
5 | 51 to 100 nM | 301 to 1000 nM | < 50 nM | < 100 nM | 301 to 1000 nM | N#Cc1c[nH]c2nc(Nc3ccc(C(=O)N4CCCC4)c4c3OCCO4)nc(NC3CCCCC3)c12 [Example 149, 4-(cyclohexylamino)-2-((8-(pyrrolidine-1-carbonyl)-2,3-dihydrobenzo[b][1,4]dioxin-5-yl)amino)-7H-pyrrolo[2,3-d]pyrimidine-5-carbonitrile]
6 | – | 301 to 1000 nM | 301 to 1000 nM | < 100 nM | 301 to 1000 nM | COc1cc(P2(=O)CCN(C3CCOCC3)CC2)ccc1Nc1nc(NC2CCCCC2)c2cc[nH]c2n1 [Example 61, 4-(4-((4-(cyclohexylamino)-7H-pyrrolo[2,3-d]pyrimidin-2-yl)amino)-3-methoxyphenyl)-1-(tetrahydro-2H-pyran-4-yl)-1,4-azaphosphinane 4-oxide]
7 | – | 101 to 300 nM | – | < 100 nM | 101 to 300 nM | COc1cc(P2(=O)CCN(C3COC3)CC2)ccc1Nc1nc(NC2CCCC2)c2c(C#N)c[nH]c2n1 [Example 313, 4-(cyclo-pentylamino)-2-((2-methoxy-4-(1-(oxetan-3-yl)-4-oxido-1,4-azaphosphinan-4-yl)phenyl)amino)-7H-pyrrolo[2,3-d]pyrimidine-5-carbonitrile]
8 | 51 to 100 nM | 301 to 1000 nM | 51 to 100 nM | < 100 nM | 301 to 1000 nM | N#Cc1c[nH]c2nc(Nc3ccc(C(=O)N4CCOCC4)c4c3OCO4)nc(NC3CCCCC3)c12 [Example 150, 4-(cyclohexylamino)-2-((7-(morpholine-4-carbonyl)benzo[d][1,3]dioxol-4-yl)amino)-7H-pyrrolo[2,3-d]pyrimidine-5-carbonitrile]
9 | 101 to 300 nM | – | 101 to 300 nM | < 100 nM | – | CN1CCC(NC(=O)c2ccc(Nc3nc(NC4CCCC4)c4c(C#N)c[nH]c4n3)c3c2OCCO3)CC1 [Example 146, 8-((5-cyano-4-(cyclopentylamino)-7H-pyrrolo[2,3-d]pyrimidin-2-yl)amino)-N-(1-methylpiperidin-4-yl)-2,3-dihydrobenzo[b][1,4]dioxin-5-carboxamide]
